Assay results as given in patent US20110195911A1, “SYNTHETIC ANALOGS OF THE JUXTAMEMBRANE DOMAIN OF IGF1R AND USES THEREOF” (THE UNITED STATES OF AMERICA,AS REPRESENTED BY THE …, priority 2008, published 2011).
Where a SMILES comes first, the peptide text is derived from it. [ ]: non-standard residue; d: D form. The star is where a group is joined. Palmitoyl = CCCCCCCCCCCCCCCC(=O)*

Tested on: MCF-7 breast cancer cells
Experiment: MTT cell toxicity assay in MCF-7 breast cancer cells
Format: cell-based
Conditions: MCF-7 cells, MTT; for TGI / GI50: final 0.5% FBS, two days with compound; for TGI: concentration of total growth inhibition (cytostatic); for growth inhibition / potency in MCF-7 cells (in words): comparison with related peptides
Protocol: Cell Toxicity Assays: MCF-7 (breast cancer), T47D (breast cancer), Colo 205 (colon cancer), JM-1 (rat hepatoma), Sk Me1-2 (melanoma), PLC (human hepatoma), and HepG2 (human hepatoma) cells were obtained from American Type Cell Culture Collection. MCF-7 cells were grown in RPMI medium supplemented with 10% Fetal Bovine Serum. The rest of the cell lines were grown in DMEM medium supplemented with 10% Fetal Bovine Serum.
MTT 43-(4,5-Dimethylthiazol-2-yl)-2,5-diphenyltetrazolium) cell assay was performed using MCF-7 breast cancer cells. For the assay, cells were seeded into 96 well plates in medium containing 1% Fetal Bovine Serum and 100 μL of a cell suspension containing 5000 cells per well. Wells containing medium-only, and wells containing untreated cells, served as controls.
Seeded cells were allowed to attach and grow in the wells for 24 hours. A 5 mM stock solution of each peptide was made by dissolving approximately 1 mg of peptide in appropriate amount of DMSO. 2 mL dilutions were used to make 0.2 μM, 1.0 μM, 5.0 μM, and 10.0 μM concentration solutions of the compounds in serum-free medium. 100 μl, of the resulting 2× solutions were added to the corresponding wells to provide a final FBS concentration of 0.5% and 0.1 μM, 0.5 μM, 2.5 μM, and 5.0 μM dilutions of inhibitors. The cells were incubated with test compounds for two days. The control wells were given 100 μL of medium to ensure maximum similarity to the test wells so that all of the wells had 200 μL of medium during the growth period. An individual plate was made for Time Zero, to which the dye was added at the time of addition of compounds.
An alternative potency assay was used to test compounds in MCF-7 (breast cancer), T47D (breast cancer), Colo 205 (colon cancer), JM-1 (rat hepatoma), Sk MeI-2 (melanoma), PLC (human hepatoma), and HepG2 (human hepatoma) cells. Cells were suspended at a concentration of approximately 5000 cells per 100 μL of suspension in a 5% FBS RPMI medium. The cells were seeded into 96-count wells and incubated over night. After one day's incubation, the 5% FBS medium was aspirated and replaced with 100 μL of no serum RPMI medium containing 1 mg Bovine Serum Albumin (BSA) per 1 mL RPMI. Various concentrations of the test compounds were prepared by dilution in no-serum medium containing 1 mg BSA/mL. 75 μL of the test compound solutions were added to the wells, and the cells were allowed to incubate for 15-20 minutes, after which time 25 μL of human recombinant IGF-1 (Peprotech) solution was added to the wells to attain final concentrations of 10 ng IGF-1/mL medium. The control wells were given 175 μL of no-serum medium in addition to 25 μL of IGF-1 solution. An individual plate was made for time zero, in which the medium was also aspirated and replaced with 175 μL of no-serum medium and 25 μL of IGF-1. 15 μL of MTT dye was added and let incubate for 4 hours, after which time a stop stop solubilization solution was added. The stop solution lysed the cells and released the dye reduced by the remaining living cells. Absorbance of the wells at 544 nm was determined by a FLUOstar/POLARstar Galaxy (BMG Lab Technologies GmbH) microplate reader. The activity was calculated from the data using the formula: 100×[(T−T0)/(C−T0)] for T>T0 and 100×[(T−T0)/T0] for T<T0, wherein T0 corresponds to cell density at the time of drug addition, “T” is the optical density of the test well after a 48-h period of exposure to test drug, and “C” is the control optical density. The GI50 measures the growth inhibitory power of the test agent, and is defined as the concentration of test drug where 100×(T−T0)/(C−T0)=50. The TGI is the concentration of test drug where 100×(T−T0)/(C−T0)=0. Thus, the TGI signifies a cytostatic effect.

CCCCCCCCCCCCCCCC(=O)N[C@H](Cc1ccc(O)cc1)C(=O)N[C@H](CC(C)C)C(=O)N[C@@H](C(=O)NCC(=O)N[C@H](CC(N)=O)C(=O)NCC(=O)N[C@H](CC(C)C)C(=O)N[C@H](CCCNC(=N)N)C(=O)N[C@H](CO)C(=O)N[C@H](CC(N)=O)C(=O)N[C@H](CC(N)=O)C(=O)N[C@H](CCCNC(=N)N)C(N)=O)C(C)C [Peptide 22, Pal-YLVGNGLRSNNR-NH2] (Palmitoyl-[dY][dL][dV]G[dN]G[dL][dR][dS][dN][dN][dR]-NH2)
cell killing activity (in words): enhanced cell killing activity | TGI: 0.5 ± 0.025 µM | growth inhibition / potency in MCF-7 cells (in words): equipotent to peptide 18

CCCCCCCCCCCCCCCC(=O)N[C@@H](Cc1c[nH]cn1)C(=O)N[C@@H](CCCNC(=N)N)C(=O)N[C@@H](CCCCN)C(=O)N[C@@H](CCCNC(=N)N)C(=O)N[C@@H](CC(N)=O)C(=O)N[C@@H](CC(N)=O)C(=O)N[C@@H](CO)C(=O)N[C@@H](CCCNC(=N)N)C(=O)N[C@@H](CC(C)C)C(=O)NCC(=O)N[C@@H](CC(N)=O)C(=O)NCC(=O)N[C@H](C(=O)N[C@@H](CC(C)C)C(=O)N[C@@H](Cc1ccc(O)cc1)C(=O)N[C@@H](C)C(=O)N[C@@H](CO)C(=O)N[C@H](C(=O)N[C@@H](CC(N)=O)C(=O)N1CCC[C@H]1C(N)=O)C(C)C)C(C)C [Peptide 23] (Palmitoyl-HRKRNNSRLGNGVLYASVNP-NH2)
GI50: 0.1 ± 0.05 µM | TGI: >5 µM | growth inhibition / potency in MCF-7 cells (in words): increased the potency

CCCCCCCCCCCCCCCC(=O)N[C@@H](Cc1c[nH]cn1)C(=O)N[C@@H](CCCNC(=N)N)C(=O)N[C@@H](CCCCN)C(=O)N[C@@H](CCCNC(=N)N)C(=O)N[C@@H](CC(N)=O)C(=O)N[C@@H](CC(N)=O)C(=O)N[C@@H](CO)C(=O)N[C@@H](CCCNC(=N)N)C(=O)N[C@@H](CC(C)C)C(=O)NCC(=O)N[C@@H](CC(N)=O)C(=O)NCC(=O)N[C@H](C(=O)N[C@@H](CC(C)C)C(=O)N[C@@H](Cc1ccc(O)cc1)C(=O)N[C@@H](C)C(=O)N[C@@H](CO)C(N)=O)C(C)C [Peptide 7, Pal-HRKRNNSRLGNGVLYAS-NH2] (Palmitoyl-HRKRNNSRLGNGVLYAS-NH2)
GI50: 1.45 ± 0.1 µM | TGI: 4.1 ± 0.3 µM

CCCCCCCCCCCCCCCC(=O)N[C@@H](Cc1c[nH]cn1)C(=O)N[C@@H](CCCNC(=N)N)C(=O)N[C@@H](CCCCN)C(=O)N[C@@H](CCCNC(=N)N)C(=O)N[C@@H](CC(N)=O)C(=O)N[C@@H](CC(N)=O)C(=O)N[C@@H](CO)C(=O)N[C@@H](CCCNC(=N)N)C(=O)N[C@@H](CC(C)C)C(=O)NCC(=O)N[C@@H](CC(N)=O)C(=O)NCC(=O)N[C@H](C(=O)N[C@@H](CC(C)C)C(N)=O)C(C)C [Peptide 10, Pal-HRKRNNSRLGNGVL-NH2] (Palmitoyl-HRKRNNSRLGNGVL-NH2)
GI50: 1.8 ± 0.1 µM | TGI: >5 µM

CCCCCCCCCCCCCCCC(=O)N[C@@H](Cc1c[nH]cn1)C(=O)N[C@@H](CCCNC(=N)N)C(=O)N[C@@H](CCCCN)C(=O)N[C@@H](CCCNC(=N)N)C(=O)N[C@@H](CC(N)=O)C(=O)N[C@@H](CC(N)=O)C(=O)N[C@@H](CO)C(=O)N[C@@H](CCCNC(=N)N)C(=O)N[C@@H](CC(C)C)C(=O)NCC(=O)N[C@@H](CC(N)=O)C(=O)NCC(=O)N[C@H](C(=O)N[C@@H](CC(C)C)C(=O)N[C@@H](Cc1ccc(O)cc1)C(=O)N[C@@H](C)C(=O)N[C@@H](CO)C(=O)N[C@H](C(N)=O)C(C)C)C(C)C [Peptide 5, Pal-HRKRNNSRLGNGVLYASV-NH2] (Palmitoyl-HRKRNNSRLGNGVLYASV-NH2)
GI50: 0.45 ± 0.05 µM | TGI: 1.45 ± 0.3 µM | growth inhibition / potency in MCF-7 cells (in words): increased the potency

CCCCCCCCCCCCCCCC(=O)N[C@@H](CCCNC(=N)N)C(=O)N[C@@H](CC(N)=O)C(=O)N[C@@H](CC(N)=O)C(=O)N[C@@H](CO)C(=O)N[C@@H](CCCNC(=N)N)C(=O)N[C@@H](CC(C)C)C(=O)NCC(=O)N[C@@H](CC(N)=O)C(=O)NCC(=O)N[C@H](C(=O)N[C@@H](CC(C)C)C(=O)N[C@@H](Cc1ccc(O)cc1)C(=O)N[C@@H](C)C(N)=O)C(C)C [Peptide 33, Pal-RNNSRLGNGVLYA-NH2] (Palmitoyl-RNNSRLGNGVLYA-NH2)
GI50: 0.1 ± 0.05 µM | TGI: >5 µM

CCCCCCCCCCCCCCCC(=O)N[C@@H](CCCNC(=N)N)C(=O)N[C@@H](CCC(N)=O)C(=O)N1CCC[C@H]1C(=O)N[C@@H](CC(=O)O)C(=O)NCC(=O)N1CCC[C@H]1C(=O)N[C@@H](CC(C)C)C(=O)NCC(=O)N1CCC[C@H]1C(=O)N[C@@H](CC(C)C)C(=O)N[C@@H](Cc1ccc(O)cc1)C(N)=O [IR-2, Pal-RQPDGPLGPLY-NH2] (Palmitoyl-RQPDGPLGPLY-NH2)
GI50: 0.06 ± 0.001 µM | TGI: 0.4 ± 0.05 µM | growth inhibition / potency in MCF-7 cells (in words): inhibited growth

CCCCCCCCCCCCCCCC(=O)N[C@@H](CCCNC(=N)N)C(=O)N[C@@H](CC(N)=O)C(=O)N[C@@H](CC(N)=O)C(=O)N[C@@H](CO)C(=O)N[C@@H](CCCNC(=N)N)C(=O)N[C@@H](CC(C)C)C(=O)NCC(=O)N[C@@H](CC(N)=O)C(=O)NCC(=O)N[C@H](C(=O)N[C@@H](CC(C)C)C(N)=O)C(C)C [Peptide 30, Pal-RNNSRLGNGVL-NH2] (Palmitoyl-RNNSRLGNGVL-NH2)
GI50: 1.7 ± 0.05 µM | TGI: 3.7 ± 0.05 µM

CCCCCCCCCCCCCCCC(=O)N[C@@H](CCCCN)C(=O)N[C@@H](CCCNC(=N)N)C(=O)N[C@@H](CC(N)=O)C(=O)N[C@@H](CC(N)=O)C(=O)N[C@@H](CO)C(=O)N[C@@H](CCCNC(=N)N)C(=O)N[C@@H](CC(C)C)C(=O)NCC(=O)N[C@@H](CC(N)=O)C(=O)NCC(=O)N[C@H](C(=O)N[C@@H](CC(C)C)C(=O)N[C@@H](Cc1ccc(O)cc1)C(N)=O)C(C)C [Peptide 27, Pal-KRNNSRLGNGVLY-NH2] (Palmitoyl-KRNNSRLGNGVLY-NH2)
GI50: 1.1 ± 0.06 µM | TGI: 2.5 ± 0.5 µM

CCCCCCCCCCCCCCCC(=O)N[C@@H](Cc1c[nH]cn1)C(=O)N[C@@H](CCCNC(=N)N)C(=O)N[C@@H](CCCCN)C(=O)N[C@@H](CCCNC(=N)N)C(=O)N[C@@H](CC(N)=O)C(=O)N[C@@H](CC(N)=O)C(=O)N[C@@H](CO)C(=O)N[C@@H](CCCNC(=N)N)C(=O)N[C@@H](CC(C)C)C(=O)NCC(N)=O [Peptide 2, Pal-HRKRNNSRLG-NH2] (Palmitoyl-HRKRNNSRLG-NH2)
GI50: 1.3 ± 0.05 µM | TGI: >5 µM

CCCCCCCCCCCCCCCC(=O)N[C@@H](CCCNC(=N)N)C(=O)N[C@@H](CC(N)=O)C(=O)N[C@@H](CC(N)=O)C(=O)N[C@@H](CO)C(=O)N[C@@H](CCCNC(=N)N)C(=O)N[C@@H](CC(C)C)C(=O)NCC(=O)N[C@@H](CC(N)=O)C(=O)NCC(=O)N[C@H](C(=O)N[C@@H](CC(C)C)C(=O)N[C@@H](Cc1ccc(O)cc1)C(=O)N[C@@H](C)C(=O)N[C@@H](CO)C(=O)N[C@H](C(N)=O)C(C)C)C(C)C [Peptide 35, Pal-RNNSRLGNGVLYASV-NH2] (Palmitoyl-RNNSRLGNGVLYASV-NH2)
GI50: 0.05 ± 0.001 µM | TGI: 2.5 ± 0.5 µM

CCCCCCCCCCCCCCCC(=O)N[C@@H](Cc1c[nH]cn1)C(=O)N[C@@H](CCCNC(=N)N)C(=O)N[C@@H](CCCCN)C(=O)N[C@@H](CCCNC(=N)N)C(=O)N[C@@H](CC(N)=O)C(=O)N[C@@H](CC(N)=O)C(=O)N[C@@H](CO)C(=O)N[C@@H](CCCNC(=N)N)C(=O)N[C@@H](CC(C)C)C(=O)NCC(=O)N[C@@H](CC(N)=O)C(=O)NCC(=O)N[C@H](C(=O)N[C@@H](CC(C)C)C(=O)N[C@@H](Cc1ccc(O)cc1)C(=O)N[C@@H](C)C(N)=O)C(C)C [Peptide 8, Pal-HRKRNNSRLGNGVLYA-NH2] (Palmitoyl-HRKRNNSRLGNGVLYA-NH2)
GI50: 1.4 ± 0.1 µM | TGI: >5 µM
